Reference: ChEMBL document CHEMBL1139410, “Potent CCR4 antagonists: synthesis, evaluation, and docking study of 2,4-diaminoquinazolines” (Bioorg Med Chem, 2008)

Assays:
[1] = target: T1, C-C chemokine receptor type 4 (Homo sapiens, UniProt P51679); assay: Antagonist activity at human CCR4 receptor by [35S]GTPgammaS binding assay; format: functional
T1 sequence (P51679 whole entry): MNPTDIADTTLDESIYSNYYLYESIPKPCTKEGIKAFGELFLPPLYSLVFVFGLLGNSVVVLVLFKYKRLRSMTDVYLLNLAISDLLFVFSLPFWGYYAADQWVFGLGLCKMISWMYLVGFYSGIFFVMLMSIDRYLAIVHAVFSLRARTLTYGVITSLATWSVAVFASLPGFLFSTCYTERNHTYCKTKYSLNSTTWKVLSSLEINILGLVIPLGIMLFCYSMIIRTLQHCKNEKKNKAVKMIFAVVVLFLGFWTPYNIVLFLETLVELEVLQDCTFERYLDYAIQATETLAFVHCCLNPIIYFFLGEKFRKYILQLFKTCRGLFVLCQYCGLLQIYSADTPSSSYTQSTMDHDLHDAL

[2] = target: T2, C-C chemokine receptor type 4 (Mus musculus) (UniProt P51680); assay: Antagonist activity at mouse CCR4 receptor assessed as inhibition of CCL22-induced chemotaxis at 1 uM by bioluminescent assay; format: functional
T2 sequence (whole entry): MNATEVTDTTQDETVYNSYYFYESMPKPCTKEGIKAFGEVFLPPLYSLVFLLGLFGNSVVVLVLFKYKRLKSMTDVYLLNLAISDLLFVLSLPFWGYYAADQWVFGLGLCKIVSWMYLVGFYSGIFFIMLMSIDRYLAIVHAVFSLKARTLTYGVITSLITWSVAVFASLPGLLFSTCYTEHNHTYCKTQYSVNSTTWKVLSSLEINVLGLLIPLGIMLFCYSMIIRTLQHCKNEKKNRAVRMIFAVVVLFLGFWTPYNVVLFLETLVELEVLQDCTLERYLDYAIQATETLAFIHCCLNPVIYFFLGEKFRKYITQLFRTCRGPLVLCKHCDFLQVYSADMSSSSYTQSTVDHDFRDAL

[3] = target: T3, C-C chemokine receptor type 4 (Homo sapiens) (UniProt P51679); assay: Antagonist activity at human CCR4 receptor assessed as inhibition of CCL22-induced chemotaxis at 1 uM by bioluminescent assay; format: functional
T3 sequence (whole entry): T1 sequence (P51679 whole entry)

Mus musculus = assay: Antiinflammatory activity against oxazolone-induced contact hypersensitivity in acute dermatitis BALB/c mouse model assessed as inhibition of ear swelling at 30 mg/kg, sc administered twice daily before 0.5 hrs and after 8 hrs of oxazolone challenge assessed after 24 hrs; format: functional; settings: route subcutaneous
[4] = target: T1, C-C chemokine receptor type 4; assay: Displacement of […]CCL22 from human CCR4 receptor by scintillation proximity assay

Structure (SMILES) | IC50 [1] [nM] | inhibition [2] [%] | inhibition [3] [%] | inhibition in vivo at 30 mg/kg (Mus musculus) [%] | IC50 [4] [nM]
COc1cc2nc(N3CCC(N(C)CCCO)CC3)nc(Nc3ccc(Cl)cc3)c2cc1OC | 43 | 32 |  |  | 
COc1cc2nc(N3CCC(N4CCCC4)CC3)nc(Nc3ccc(F)c(F)c3)c2cc1OC | 25 |  |  |  | 
CCN(CC)CCN1CCCN(c2nc(Nc3ccc(Cl)cc3)c3cc(OC)c(OC)cc3n2)CC1 | 92 | 42 | 15 |  | 
COc1cc2nc(N3CCC(N4CCCC4)CC3)nc(Nc3ccc(F)cc3)c2cc1OC | 31 |  |  |  | 
COc1cc2nc(N3CCC(N(C)CCO)CC3)nc(Nc3ccc(Cl)cc3)c2cc1OC | 98 |  | 47 |  | 
COc1cc2nc(N3CCC(N4CCCC4)CC3)nc(Nc3ccc(Cl)cc3)c2cc1OC | 24 |  |  | 42.5 | 150
COc1cc2nc(N3CCCN(CCN4CCCC4)CC3)nc(Nc3ccc(Cl)cc3)c2cc1OC | 150 |  |  |  | 
COc1cc2nc(N3CCCN(C4CCCCC4)CC3)nc(Nc3ccc(Cl)cc3)c2cc1OC | 550 |  |  |  | 
COc1cc2nc(N3CCC(N4CCCC4)CC3)nc(Nc3cccc(Br)c3)c2cc1OC | 220 | 11 | 36 |  | 510
COc1cc2nc(N3CCCN(CCN4CCCCC4)CC3)nc(Nc3ccc(Cl)cc3)c2cc1OC | 130 |  |  |  | 
COc1cc2nc(N3CCC(N(C)CCCCO)CC3)nc(Nc3ccc(Cl)cc3)c2cc1OC | 61 | 42 |  |  | 
